Measurements from EP0934303B1, “COMPOUNDS USEFUL FOR INHIBITION OF FARNESYL PROTEIN TRANSFERASE” (SCHERING CORPORATION, priority 1996, dated 1998).
pIC50: −log10 of the molar value. Read-outs that look alike come from different tables or passages of the source.

What was measured:
[1] = target: farnesyl protein transferase (Homo sapiens, UniProt P49354+P49356); assay: FPT IC50, inhibition of farnesyl protein transferase, in vitro enzyme assay (procedure of WO 95/10516); type: biochemical; conditions: one range stated for the whole list of compounds
farnesyl protein transferase, sequence (P49356 whole entry, one chain of several): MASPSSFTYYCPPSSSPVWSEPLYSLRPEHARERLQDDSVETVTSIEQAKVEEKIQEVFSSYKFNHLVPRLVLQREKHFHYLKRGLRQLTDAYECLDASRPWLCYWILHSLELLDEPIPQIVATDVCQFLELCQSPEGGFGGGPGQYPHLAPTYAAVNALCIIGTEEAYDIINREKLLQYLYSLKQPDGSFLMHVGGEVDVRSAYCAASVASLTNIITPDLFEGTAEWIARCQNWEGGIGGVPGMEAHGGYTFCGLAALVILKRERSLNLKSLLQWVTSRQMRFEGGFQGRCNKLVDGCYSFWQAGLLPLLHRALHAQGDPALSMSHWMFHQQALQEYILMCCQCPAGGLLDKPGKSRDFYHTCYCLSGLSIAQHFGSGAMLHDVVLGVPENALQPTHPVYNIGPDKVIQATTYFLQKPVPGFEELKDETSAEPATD
Protocol: (§1) FPT IC50 (inhibition of farnesyl protein transferase, in vitro enzyme assay), GGPT IC50 (inhibition of geranylgeranyl protein transferase, in vitro enzyme assay) and COS Cell IC50 (Cell-Based Assay) were determined following the assay procedures described in WO 95/10516, published April 20, 1995. Cell Mat Assay, and anti-tumor activity (in vivo anti-tumor studies) could be determined by the assay procedures described in WO 95/10516. The disclosure of WO 95/10516 is incorporated herein by reference thereto.

Human tumor cells = assay: Soft Agar Assay (anchorage-independent growth, colony count after MTT staining); type: cell-based; conditions: one range stated for the whole list of compounds
Protocol: Anchorage-independent growth is a characteristic of tumorigenic cell lines. Human tumor cells are suspended in growth medium containing 0.3% agarose and an indicated concentration of a farnesyl transferase inhibitor. The solution is overlayed onto growth medium solidified with 0.6% agarose containing the same concentration of farnesyl transferase inhibitor as the top layer. After the top layer is solidified, plates are incubated for 10-16 days at 37°C under 5% CO2 to allow colony outgrowth. After incubation, the colonies are stained by overlaying the agar with a solution of MTT (3-[4,5-dimethylthiazol-2-yl]-2,5-diphenyltetrazolium bromide, Thiazolyl blue) (1 mg/mL in PBS). Colonies can be counted and the IC50's can be determined.

COS Cell = COS Cell IC50 (Cell-Based Assay, procedure of WO 95/10516); conditions: one range stated for the whole list of compounds
Protocol: as §1

[2] = target: geranylgeranyl protein transferase (Rattus norvegicus, UniProt P53610+Q04631); assay: GGPT IC50, inhibition of geranylgeranyl protein transferase, in vitro enzyme assay (procedure of WO 95/10516); type: biochemical
Protocol: as §1

[3] = H-ras, read-out: FPT IC50 (H-ras)
[4] = K-ras, read-out: FPT IC50 (K-ras)

pIC50 [1, 3]	pIC50 [1, 4]	pIC50 [2]	SMILES	pIC50 (Human tumor cells)	pIC50 (COS Cell)
≤ 9.10			N=C(Oc1ccccc1)N1CCC(CC(=O)N2CCC(C3c4ccc(Cl)c(Br)c4CCc4cc(Br)cnc43)CC2)CC1 (racemic) [Compound 26.0]		
≤ 9.10			N#CN=C(Oc1ccccc1)N1CCC(CC(=O)N2CCN(C3c4ccc(Cl)cc4CCc4cc(Br)cnc43)CC2)CC1 (stereo not drawn) [Compound 2.0, PHENYL 4-[2-[4-(3-BROMO-8-CHLORO-6,11-DIHYDRO-5H-BENZO[5,6]CYCLOHEPTA[1,2-b]PYRIDIN-11-YL)-1-PIPERAZINYL]-2-OXOETHYL]-N-CYANO-1-PIPERIDINE- CARBOXIMIDATE]		
≤ 9.10			N#CNC(=N)N1CCC(CC(=O)N2CCN(C3c4ccc(Cl)cc4CCc4cc(Br)cnc43)CC2)CC1 (stereo not drawn) [Compound 3.0, 4-[2-[4-(3-BROMO-8-CHLORO-6,11-DIHYDRO-5H-BENZO[5,6]CYCLOHEPTA[1,2-b]PYRIDIN-11-YL)-1-PIPERAZINYL]-2-OXOETHYL]-N-CYANO-1-PIPERIDINE-CARBOXIMIDAMIDE]		
≤ 9.10			N=C(Oc1ccccc1)N1CCC(CC(=O)N2CCN(C3c4ccc(Cl)cc4CCc4cc(Br)cnc43)CC2)CC1 (stereo not drawn) [Compound 4.0, PHENYL 4-[2-[4-(3-BROMO-8-CHLORO-6,11-DIHYDRO-5H-BENZO[5,6]CYCLOHEPTA[1,2-b]PYRIDIN-11-YL)-1-PIPERAZINYL]-2-OXOETHYL]-1-PIPERIDINECARBOXIMIDATE]		
≤ 9.10			N=C(NS(N)(=O)=O)N1CCC(CC(=O)N2CCN(C3c4ccc(Cl)cc4CCc4cc(Br)cnc43)CC2)CC1 (stereo not drawn) [Compound 7.0, 4-[2-[4-(3-BROMO-8-CHLORO-6,11-DIHYDRO-5H-BENZO[5,6]CYCLOHEPTA[1,2-b]PYRIDIN-11-YL)-1-PIPERAZINYL]-2-OXOETHYL]-N-SULFAMOYL-1-PIPERIDINE-CARBOXIMIDAMIDE]		
≤ 9.10			NC(=O)NC(=O)N=C(Oc1ccccc1)N1CCC(CC(=O)N2CCN(C3c4ccc(Cl)cc4CCc4cc(Br)cnc43)CC2)CC1 (stereo not drawn) [Compound 16.1, PHENYL N-[[(AMINOCARBONYL)AMINO]CARBONYL]-4-[2-[4-(3-BROMO-8-CHLORO-6,11-DIHYDRO-5H-BENZO[5,6]CYCLOHEPTA-[1,2-b]PYRIDIN-11-YL)-1-PIPERAZINYL]-2-OXOETHYL]-1-PIPERIDINECARBOXIMIDATE]		
≤ 9.10			N=C(NC(=O)NC(N)=O)N1CCC(CC(=O)N2CCN(C3c4ccc(Cl)cc4CCc4cc(Br)cnc43)CC2)CC1 (stereo not drawn) [Compound 17.1, N-[[(AMINOCARBONYL)AMINO]CARBONYL]-4-[2-[4-(3-BROMO-8-CHLORO-6,11-DIHYDRO-5H-BENZO[5,6]CYCLOHEPTA[1,2-b]-PYRIDIN-11-YL)-1-PIPERAZINYL]-2-OXOETHYL]-1-PIPERIDINECARBOXIMIDAMIDE]		
			O=C(O)c1cncc(C(=O)N2CCC(CC(=O)N3CCC([C@H]4c5ncc(Br)cc5CCc5cc(Cl)cc(Br)c54)CC3)CC2)c1 [Compound 25.0-B]	≤ 7.05	≤ 8.15
			Cc1noc(C)c1C(=O)N1CCC(CC(=O)N2CCC([C@H]3c4ncc(Br)cc4CCc4cc(Cl)cc(Br)c43)CC2)CC1 [Compound 27.0-B]	≤ 7.05	≤ 8.15
≤ 9.10	6.11 to 7.80		N=C(Oc1ccccc1)N1CCC(CC(=O)N2CCC([C@H]3c4ncc(Br)cc4CCc4cc(Cl)cc(Br)c43)CC2)CC1 [Compound 27.0]	≤ 7.05	≤ 7.92
			O=C1N[C@H](C(=O)N2CCC(CC(=O)N3CCC([C@H]4c5ncc(Br)cc5CCc5cc(Cl)cc(Br)c54)CC3)CC2)CO1 [Compound 28.0-B]	≤ 7.05	≤ 8.15
≤ 9.10	6.11 to 7.80	< 5.02	N#CN1CCC(CC(=O)N2CCC(C3c4ccc(Cl)c(Br)c4CCc4cc(Br)cnc43)CC2)CC1 (stereo not drawn) [Compound 28.0]		≤ 7.92
			NC(=O)c1cncc(C(=O)N2CCC(CC(=O)N3CCC([C@H]4c5ncc(Br)cc5CCc5cc(Cl)cc(Br)c54)CC3)CC2)c1 [Compound 29.0-B]	≤ 7.05	≤ 8.15
≤ 9.10			N=C(N)N1CCC(CC(=O)N2CCC(C3c4ccc(Cl)c(Br)c4CCc4cc(Br)cnc43)CC2)CC1 (stereo not drawn) [Compound 30.0]		≤ 7.92
			O=C(CC1CCN(C(=O)c2cn[nH]c2)CC1)N1CCC([C@H]2c3ncc(Br)cc3CCc3cc(Cl)cc(Br)c32)CC1 [Compound 31.0-B]	≤ 7.05	≤ 8.15
≤ 9.10	6.11 to 7.80	< 5.12	N=C(NCc1cccnc1)N1CCC(CC(=O)N2CCC(C3c4ccc(Cl)c(Br)c4CCc4cc(Br)cnc43)CC2)CC1 (stereo not drawn) [Compound 31.0]		≤ 7.92
			CC(=O)N1CCC(CC(=O)N2CCC([C@H]3c4ncc(Br)cc4CCc4cc(Cl)cc(Br)c43)CC2)CC1 [Compound 36.0-B]	≤ 7.05	≤ 8.15
≤ 9.10			CCn1cccc1C(=O)N1CCC(CC(=O)N2CCC([C@H]3c4ncc(Br)cc4CCc4cc(Cl)cc(Br)c43)CC2)CC1 [Compound 40.0-B]	≤ 7.05	≤ 8.15
			O=C(CC1CCN(C(=O)c2cc[n+]([O-])cc2)CC1)N1CCC([C@H]2c3ncc(Br)cc3CCc3cc(Cl)cc(Br)c32)CC1 [Compound 45.0-B]	≤ 7.05	≤ 8.15
			O=C(CC1CCN(C(=O)c2ccc[n+]([O-])c2)CC1)N1CCC([C@H]2c3ncc(Br)cc3CCc3cc(Cl)cc(Br)c32)CC1 [Compound 46.0-B]	≤ 7.05	≤ 8.15
			O=C(CC1CCN(C(=O)c2ccc(O)nc2)CC1)N1CCC([C@H]2c3ncc(Br)cc3CCc3cc(Cl)cc(Br)c32)CC1 [Compound 47.0-B]	≤ 7.05	≤ 8.15
			O=C(CC1CCN(C(=O)c2cccnc2O)CC1)N1CCC([C@H]2c3ncc(Br)cc3CCc3cc(Cl)cc(Br)c32)CC1 [Compound 48.0-B]	≤ 7.05	≤ 8.15
			CC(=O)OC1CCC(C(=O)N2CCC(CC(=O)N3CCC(C4c5ncc(Br)cc5CCc5cc(Cl)cc(Br)c54)CC3)CC2)CC1 (stereo not drawn) [Compound 66.0-B]	≤ 7.05	≤ 8.15
			O=C1C[C@@H](C(=O)N2CCC(CC(=O)N3CCC([C@H]4c5ncc(Br)cc5CCc5cc(Cl)cc(Br)c54)CC3)CC2)NC(=O)N1 [Compound 78.0-B]	≤ 7.05	≤ 8.15
			O=C(CC1CCN(C(=O)[C@@H]2CSCN2)CC1)N1CCC([C@H]2c3ncc(Br)cc3CCc3cc(Cl)cc(Br)c32)CC1 [Compound 80.0-B]	≤ 7.05	
			O=C(CC1CCN(C(=O)c2ncccc2O)CC1)N1CCC([C@H]2c3ncc(Br)cc3CCc3cc(Cl)cc(Br)c32)CC1 [Compound 83.0-B]	≤ 7.05	≤ 8.15
			O=C(CC1CCN(C(=O)c2ccoc2)CC1)N1CCC([C@H]2c3ncc(Br)cc3CCc3cc(Cl)cc(Br)c32)CC1 [Compound 84.0-B]	≤ 7.05	≤ 8.15
			O=C(CC1CCN(C(=O)N2CCOCC2)CC1)N1CCC([C@H]2c3ncc(Br)cc3CCc3cc(Cl)cc(Br)c32)CC1 [Compound 100.0-B]	≤ 7.05	≤ 8.15

SMILES	pIC50 [1, 3]	pIC50 [1, 4]	pIC50 [2]	pIC50 (Human tumor cells)	pIC50 (COS Cell)
N#CN1CCC(CC(=O)N2CCN(C3c4ccc(Cl)cc4CCc4cc(Br)cnc43)CC2)CC1 (stereo not drawn) [Compound 5.0]	≤ 9.10				
NC(=NO)N1CCC(CC(=O)N2CCN(C3c4ccc(Cl)cc4CCc4cc(Br)cnc43)CC2)CC1 (stereo not drawn) [Compound 12.0, 4-[2-[4-(3-BROMO-8-CHLORO-6,11-DIHYDRO-5H-BENZO[5,6]CYCLOHEPTA[1,2-b]PYRIDIN-11-YL)-1-PIPERAZINYL]-2-OXOETHYL]-N-HYDROXY-1-PIPERIDINECARBOXIMIDATE]	≤ 9.10				
CON=C(N)N1CCC(CC(=O)N2CCN(C3c4ccc(Cl)cc4CCc4cc(Br)cnc43)CC2)CC1 (stereo not drawn) [Compound 13.0, 4-[2-[4-(3-BROMO-8-CHLORO-6,11-DIHYDRO-5H-BENZO[5,6]CYCLOHEPTA[1,2-b]PYRIDIN-11-YL)-1-PIPERAZINYL]-2-OXOETHYL]-N-METHOXY-1-PIPERIDINE-CARBOXIMIDATE]	≤ 9.10				
N#CN1CCC(CC(=O)N2CCC([C@H]3c4ncc(Br)cc4CCc4cc(Cl)cc(Br)c43)CC2)CC1 [Compound 29.0]	≤ 9.10				≤ 7.92
